According to PubChem BioAssay (NCI):
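GI50 marks 50% less growth. TGI: concentration producing complete growth inhibition.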

How the values were obtained:
Assay in all cases: NCI anticancer screen, dose series, 384-well format
SR leukemia = tested on: SR leukemia
SNB-75 CNS = tested on: SNB-75 CNS
HS 578T breast = tested on: HS 578T breast
EKVX NSCLC = tested on: EKVX NSCLC
PC-3 prostate = tested on: PC-3 prostate
BT-549 breast = tested on: BT-549 breast
MDA-MB-435 melanoma = tested on: MDA-MB-435 melanoma
OVCAR-8 ovarian = tested on: OVCAR-8 ovarian
K-562 leukemia = tested on: K-562 leukemia
ACHN renal = tested on: ACHN renal
SK-OV-3 ovarian = tested on: SK-OV-3 ovarian
HL-60(TB) leukemia = tested on: HL-60(TB) leukemia
HCT-15 colon = tested on: HCT-15 colon
MDA-MB-231 breast = tested on: MDA-MB-231 breast
SN12C renal = tested on: SN12C renal
NCI-H226 lung = tested on: NCI-H226 lung
TK-10 renal = tested on: TK-10 renal
MALME-3M melanoma = tested on: MALME-3M melanoma
OVCAR-5 ovarian = tested on: OVCAR-5 ovarian
HOP-62 NSCLC = tested on: HOP-62 NSCLC
SK-MEL-28 melanoma = tested on: SK-MEL-28 melanoma
HCT-116 colon = tested on: HCT-116 colon
COLO 205 colon = tested on: COLO 205 colon
DU-145 prostate = tested on: DU-145 prostate
NCI-H522 lung = tested on: NCI-H522 lung
NCI/ADR-RES ovarian = tested on: NCI/ADR-RES ovarian
CAKI-1 renal = tested on: CAKI-1 renal
NCI-H322M lung = tested on: NCI-H322M lung
IGROV1 ovarian = tested on: IGROV1 ovarian
CCRF-CEM leukemia = tested on: CCRF-CEM leukemia
SF-268 CNS = tested on: SF-268 CNS
UO-31 renal = tested on: UO-31 renal
KM12 colon = tested on: KM12 colon
HCC-2998 colon = tested on: HCC-2998 colon
786-0 renal = tested on: 786-0 renal
SK-MEL-2 melanoma = tested on: SK-MEL-2 melanoma
A498 renal = tested on: A498 renal
MOLT-4 leukemia = tested on: MOLT-4 leukemia
NCI-H23 lung = tested on: NCI-H23 lung
OVCAR-3 ovarian = tested on: OVCAR-3 ovarian
SW-620 colon = tested on: SW-620 colon
SNB-19 CNS = tested on: SNB-19 CNS
RPMI-8226 leukemia = tested on: RPMI-8226 leukemia
LOX IMVI melanoma = tested on: LOX IMVI melanoma
U251 glioblastoma = tested on: U251 glioblastoma
HOP-92 NSCLC = tested on: HOP-92 NSCLC
SK-MEL-5 melanoma = tested on: SK-MEL-5 melanoma

Structure (SMILES): C=CC(=O)Nc1cccc(Oc2nc(Nc3ccc(N4CCN(C)CC4)cc3)nc3ccsc23)c1
- GI50 (SR leukemia): 857 nM
- TGI (SR leukemia): 1950 nM
- GI50 (SNB-75 CNS): 1350 nM
- TGI (SNB-75 CNS): 2740 nM
- GI50 (HS 578T breast): 1450 nM
- TGI (HS 578T breast): 2800 nM
- GI50 (EKVX NSCLC): 1310 nM
- TGI (EKVX NSCLC): 3840 nM
- GI50 (PC-3 prostate): 1700 nM
- TGI (PC-3 prostate): 3120 nM
- GI50 (BT-549 breast): 1380 nM
- TGI (BT-549 breast): 2690 nM
- GI50 (MDA-MB-435 melanoma): 1780 nM
- TGI (MDA-MB-435 melanoma): 3200 nM
- GI50 (OVCAR-8 ovarian): 1590 nM
- TGI (OVCAR-8 ovarian): 3000 nM
- GI50 (K-562 leukemia): 1380 nM
- TGI (K-562 leukemia): 2720 nM
- GI50 (ACHN renal): 1260 nM
- TGI (ACHN renal): 2690 nM
- GI50 (SK-OV-3 ovarian): 1570 nM
- TGI (SK-OV-3 ovarian): 4190 nM
- GI50 (HL-60(TB) leukemia): 1600 nM
- TGI (HL-60(TB) leukemia): 2970 nM
- GI50 (HCT-15 colon): 1560 nM
- TGI (HCT-15 colon): 3030 nM
- GI50 (MDA-MB-231 breast): 1700 nM
- TGI (MDA-MB-231 breast): 3330 nM
- GI50 (SN12C renal): 1350 nM
- TGI (SN12C renal): 2750 nM
- GI50 (NCI-H226 lung): 1570 nM
- TGI (NCI-H226 lung): 3880 nM
- GI50 (TK-10 renal): 957 nM
- TGI (TK-10 renal): 2250 nM
- GI50 (MALME-3M melanoma): 1760 nM
- TGI (MALME-3M melanoma): 3160 nM
- GI50 (OVCAR-5 ovarian): 2020 nM
- TGI (OVCAR-5 ovarian): 5790 nM
- GI50 (HOP-62 NSCLC): 2000 nM
- TGI (HOP-62 NSCLC): 4540 nM
- GI50 (SK-MEL-28 melanoma): 1740 nM
- TGI (SK-MEL-28 melanoma): 3140 nM
- GI50 (HCT-116 colon): 1680 nM
- TGI (HCT-116 colon): 3090 nM
- GI50 (COLO 205 colon): 1830 nM
- TGI (COLO 205 colon): 3250 nM
- GI50 (DU-145 prostate): 1420 nM
- TGI (DU-145 prostate): 3210 nM
- GI50 (NCI-H522 lung): 334 nM
- TGI (NCI-H522 lung): 1410 nM
- GI50 (NCI/ADR-RES ovarian): 1940 nM
- TGI (NCI/ADR-RES ovarian): 4000 nM
- GI50 (CAKI-1 renal): 833 nM
- TGI (CAKI-1 renal): 2150 nM
- GI50 (NCI-H322M lung): 902 nM
- TGI (NCI-H322M lung): 3350 nM
- GI50 (IGROV1 ovarian): 1060 nM
- TGI (IGROV1 ovarian): 2260 nM
- GI50 (CCRF-CEM leukemia): 1500 nM
- TGI (CCRF-CEM leukemia): 2840 nM
- GI50 (SF-268 CNS): 1840 nM
- TGI (SF-268 CNS): 4010 nM
- GI50 (UO-31 renal): 1390 nM
- TGI (UO-31 renal): 2700 nM
- GI50 (KM12 colon): 1590 nM
- TGI (KM12 colon): 3120 nM
- GI50 (HCC-2998 colon): 1700 nM
- TGI (HCC-2998 colon): 3090 nM
- GI50 ([…]-0 renal): 1460 nM
- TGI (786-0 renal): 2810 nM
- GI50 (SK-MEL-2 melanoma): 1610 nM
- TGI (SK-MEL-2 melanoma): 2970 nM
- GI50 (A498 renal): 1220 nM
- TGI (A498 renal): 2490 nM
- GI50 (MOLT-4 leukemia): 1530 nM
- TGI (MOLT-4 leukemia): 2890 nM
- GI50 (NCI-H23 lung): 1940 nM
- TGI (NCI-H23 lung): 5370 nM
- GI50 (OVCAR-3 ovarian): 923 nM
- TGI (OVCAR-3 ovarian): 2200 nM
- GI50 (SW-620 colon): 1740 nM
- TGI (SW-620 colon): 3140 nM
- GI50 (SNB-19 CNS): 1820 nM
- TGI (SNB-19 CNS): 3700 nM
- GI50 (RPMI-8226 leukemia): 1460 nM
- TGI (RPMI-8226 leukemia): 2780 nM
- GI50 (LOX IMVI melanoma): 1810 nM
- TGI (LOX IMVI melanoma): 3220 nM
- GI50 (U251 glioblastoma): 1650 nM
- TGI (U251 glioblastoma): 3060 nM
- GI50 (HOP-92 NSCLC): 1370 nM
- TGI (HOP-92 NSCLC): 2950 nM
- GI50 (SK-MEL-5 melanoma): 1840 nM
- TGI (SK-MEL-5 melanoma): 3250 nM
